{"source": "patent US20240208992A1", "about": "“MACROCYCLES AS CFTR MODULATORS” (Idorsia Pharmaceuticals Ltd, priority 2021, published 2024)", "key": {"[1]": {"conditions": "the molecule shown is the open-chain precursor; amide bond; 17-membered ring; 2 steps"}, "[2]": {"conditions": "amide bond"}, "[3]": {"conditions": "amide bond, 17-membered ring"}, "human F508del-CFTR": {"molecular_target": "human F508del-CFTR (Homo sapiens, UniProt P13569, DEL508-508)", "sequence (P13569 with tags, fused parts or gaps DEL508-508)": "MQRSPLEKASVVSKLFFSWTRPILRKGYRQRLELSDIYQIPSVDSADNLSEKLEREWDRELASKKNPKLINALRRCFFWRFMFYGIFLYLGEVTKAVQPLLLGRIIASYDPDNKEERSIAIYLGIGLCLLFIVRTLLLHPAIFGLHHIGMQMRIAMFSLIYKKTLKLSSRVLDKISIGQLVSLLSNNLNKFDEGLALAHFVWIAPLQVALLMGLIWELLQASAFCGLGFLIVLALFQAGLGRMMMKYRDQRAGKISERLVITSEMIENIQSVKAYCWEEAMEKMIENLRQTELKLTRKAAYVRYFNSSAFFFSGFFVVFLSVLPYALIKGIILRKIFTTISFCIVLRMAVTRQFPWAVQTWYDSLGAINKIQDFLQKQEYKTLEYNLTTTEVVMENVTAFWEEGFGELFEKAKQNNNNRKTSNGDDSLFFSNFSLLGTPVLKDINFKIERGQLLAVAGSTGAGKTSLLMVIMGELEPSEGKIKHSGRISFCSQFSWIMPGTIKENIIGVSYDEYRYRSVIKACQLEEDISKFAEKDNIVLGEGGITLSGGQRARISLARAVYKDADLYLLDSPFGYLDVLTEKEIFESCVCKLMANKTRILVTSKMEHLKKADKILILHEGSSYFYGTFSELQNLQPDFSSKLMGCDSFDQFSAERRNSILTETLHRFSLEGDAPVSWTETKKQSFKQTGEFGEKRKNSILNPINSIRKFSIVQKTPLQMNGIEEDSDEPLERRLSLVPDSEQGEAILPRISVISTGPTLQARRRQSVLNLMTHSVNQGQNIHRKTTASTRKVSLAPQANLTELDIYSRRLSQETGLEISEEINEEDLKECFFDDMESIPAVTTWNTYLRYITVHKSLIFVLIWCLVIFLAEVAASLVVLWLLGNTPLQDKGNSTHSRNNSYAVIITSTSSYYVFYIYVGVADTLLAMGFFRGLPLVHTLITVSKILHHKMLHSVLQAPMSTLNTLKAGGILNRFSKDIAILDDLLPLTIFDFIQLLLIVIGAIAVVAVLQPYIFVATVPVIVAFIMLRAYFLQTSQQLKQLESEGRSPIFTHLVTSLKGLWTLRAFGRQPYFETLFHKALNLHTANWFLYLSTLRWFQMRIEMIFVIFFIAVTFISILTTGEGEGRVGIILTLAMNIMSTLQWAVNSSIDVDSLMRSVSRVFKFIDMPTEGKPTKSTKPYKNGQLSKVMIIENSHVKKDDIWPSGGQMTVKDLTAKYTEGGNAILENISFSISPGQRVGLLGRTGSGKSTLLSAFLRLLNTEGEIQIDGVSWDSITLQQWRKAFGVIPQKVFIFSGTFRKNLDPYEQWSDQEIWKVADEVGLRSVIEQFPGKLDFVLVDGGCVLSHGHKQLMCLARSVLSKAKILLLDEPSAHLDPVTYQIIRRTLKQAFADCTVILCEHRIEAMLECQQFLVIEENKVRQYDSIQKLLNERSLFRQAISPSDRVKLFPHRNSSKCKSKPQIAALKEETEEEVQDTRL", "assay": "F508del-CFTR cell surface expression (corrector activity), DiscoveRx ß-galactosidase complementation chemiluminescence assay in recombinant U2OS cell line;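 on all read-outs here: U2OS cells co-expressing ProLink-tagged F508del-CFTR and a membrane-anchored enzyme acceptor, where more surface CFTR restores β-galactosidase activity measured by chemiluminescence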", "conditions": "for pEC50: EC50, F508del-CFTR cell surface expression; for Emax: U2OS"}, "[4]": {"conditions": "U2OS cells, 16h compound incubation, geomean of several measurements"}, "[5]": {"conditions": "in relation to the Emax of the corrector lumacaftor (=100%), U2OS cells, 16h compound incubation, arithmetic mean"}}, "note": "pEC50: −log10 of the molar value. Read-outs that look alike come from different tables or passages of the source."}
{"compound": "CC(C)C[C@@H](C(=O)N1CCCC[C@@H]1C(=O)N[C@@H](COc1cnc2ccccc2c1C(=O)N[C@@H](CC(=O)OC(C)(C)C)C(=O)OCc1ccccc1)Cc1ccccc1)N(C)C(=O)OC(C)(C)C", "values": [{"measurement": "ring closure, isolated yield", "setting": "[1]", "value": 58, "unit": "%"}]}
{"compound": "CC(C)C[C@H]1C(=O)N(CCC(C)(C)C)CC(=O)N[C@H](Cc2ccccc2)COc2cc3c(cc2C(=O)N[C@H](C(=O)O)CC(=O)N1C)OCO3", "values": [{"measurement": "ring closure, yield of all isomers", "setting": "[2]; from CN[C@@H](CC(C)C)C(=O)N(CCC(C)(C)C)CC(=O)N[C@@H](COc1cc2c(cc1C(=O)N[C@@H](CC(=O)O)C(=O)O)OCO2)Cc1ccccc1, pentafluorophenyl diphenylphosphinate (FDPP), DMF/DCM, 67.5 mM, 5.0 h, 11 steps", "value": 26, "unit": "%"}]}
{"compound": "CC(C)C[C@H]1C(=O)N(C[C@H]2COc3ccccc3C2)CC(=O)N[C@H](Cc2ccccc2)COc2ccc3ccccc3c2C(=O)N[C@H](C(=O)NCCc2ccc3c(c2)OCO3)CC(=O)N1C", "values": [{"measurement": "ring closure, yield after HPLC", "setting": "[3]; from CN[C@@H](CC(C)C)C(=O)N(CC(=O)N[C@@H](COc1ccc2ccccc2c1C(=O)N[C@@H](CC(=O)O)C(=O)NCCc1ccc2c(c1)OCO2)Cc1ccccc1)C[C@H]1COc2ccccc2C1, HATU/DIEA, DMF, 82.0 mM, 25.0 °C", "value": 97, "unit": "%"}]}
{"compound": "COc1cc2c(cc1OC)C(=O)N[C@H](C(=O)OCc1ccccc1)CC(=O)N(C)[C@@H](CC1CC1)C(=O)N(CCC1CCCCC1)CC(=O)N[C@H](Cc1ccccc1)CO2", "values": [{"measurement": "ring closure, yield after HPLC", "setting": "[3]; from CN[C@@H](CC1CC1)C(=O)N(CCC1CCCCC1)CC(=O)N[C@@H](COc1cc(OC)c(OC)cc1C(=O)N[C@@H](CC(=O)O)C(=O)OCc1ccccc1)Cc1ccccc1, FDPP, DCM, 50.0 °C", "value": 13, "unit": "%"}, {"measurement": "ring closure, yield of all isomers", "setting": "[2]; from CN[C@@H](CC1CC1)C(=O)N(CCC1CCCCC1)CC(=O)N[C@@H](COc1cc(OC)c(OC)cc1C(=O)N[C@@H](CC(=O)O)C(=O)OCc1ccccc1)Cc1ccccc1, FDPP, DCM, 50.0 °C, 12.0 h", "value": 13, "unit": "%"}]}
{"compound": "COc1nccc2c1C(=O)N[C@H](C(=O)NCCc1nc(C3CC3)no1)CC(=O)N(C)[C@@H](CC(C)C)C(=O)N(C)C(COCc1ccccc1)C(=O)N[C@H](Cc1ccccc1)CO2", "note": "(stereo partly drawn)", "values": [{"measurement": "ring closure, yield after HPLC", "setting": "[3]; from CN[C@@H](CC(C)C)C(=O)N(C)C(COCc1ccccc1)C(=O)N[C@@H](COc1ccnc(OC)c1C(=O)N[C@@H](CC(=O)O)C(=O)NCCc1nc(C2CC2)no1)Cc1ccccc1, HATU/DIEA, DMF, 60.0 mM", "value": 82, "unit": "%"}]}
{"compound": "COc1cccc(CCNC(=O)[C@@H]2CC(=O)N(C)[C@@H](CC(C)C)C(=O)N(C)[C@H](COCc3ccccc3)C(=O)N[C@H](Cc3ccccc3)COc3ccc4ccccc4c3C(=O)N2)c1", "note": "[Example 713, (3S,7S,10R,13R)-13-benzyl-10-((benzyloxy)methyl)-7-isobutyl-N-(3-methoxyphenethyl)-6,9-dimethyl-1,5,8,11-tetraoxo-1,2,3,4,5,6,7,8,9,10,11,12,13,14-tetradecahydronaphtho[1,2-p][1]oxa[4,7,10,14]tetraazacycloheptadecine-3-carboxamide]", "values": [{"measurement": "ring closure, yield after HPLC", "setting": "[3]; from CN[C@@H](CC(C)C)C(=O)N(C)[C@H](COCc1ccccc1)C(=O)N[C@@H](COc1ccc2ccccc2c1C(=O)N[C@@H](CC(=O)O)C(=O)NCCc1cccc(OC)c1)Cc1ccccc1, HATU/DIEA, DMF, 41.0 mM, 25.0 °C", "value": 82, "unit": "%"}, {"measurement": "pEC50", "setting": "human F508del-CFTR; U2OS cells, 16h compound incubation, geomean values", "value": 7.51}, {"measurement": "Emax", "setting": "human F508del-CFTR; in relation to Emax of corrector lumacaftor (=100%), arithmetic mean values", "value": 432, "unit": "%"}]}
{"compound": "COc1cc(CCNC(=O)[C@@H]2CC(=O)N(C)[C@@H](CC(C)C)C(=O)N(C)[C@H](CC3CCC3)C(=O)N[C@H](Cc3ccccc3)COc3cc(C)nc(OC)c3C(=O)N2)on1", "note": "[Example 980, (3R,6R,9S,13S)-3-benzyl-6-(cyclobutylmethyl)-9-isobutyl-16-methoxy-N-(2-(3-methoxyisoxazol-5-yl)ethyl)-7,10,18-trimethyl-5,8,11,15-tetraoxo-2,3,4,5,6,7,8,9,10,11,12,13,14,15-tetradecahydropyrido[3,4-p][1]oxa[4,7,10,14]tetraazacycloheptadecine-13-carboxamide]", "values": [{"measurement": "pEC50", "setting": "human F508del-CFTR; [4]", "value": 7.28}, {"measurement": "Emax", "setting": "human F508del-CFTR; [5]", "value": 435, "unit": "%"}]}
{"compound": "COc1cc(CCNC(=O)[C@@H]2CC(=O)N(C)[C@@H](CC(C)C)C(=O)N(C)[C@H](Cc3nc(C(F)(F)F)no3)C(=O)N[C@H](Cc3ccccc3)COc3c[n+]([O-])c4ccc(F)cc4c3C(=O)N2)on1", "note": "[Example 981, (3S,7S,10R,13R)-13-benzyl-20-fluoro-7-isobutyl-3-((2-(3-methoxyisoxazol-5-yl)ethyl)carbamoyl)-6,9-dimethyl-1,5,8,11-tetraoxo-10-((3-(trifluoromethyl)-1,2,4-oxadiazol-5-yl)methyl)-1,2,3,4,5,6,7,8,9,10,11,12,13,14-tetradecahydro-[1]oxa[4,7,10,14]tetraazacycloheptadecino[17,16-c]quinoline 17-oxide]", "values": [{"measurement": "pEC50", "setting": "human F508del-CFTR; [4]", "value": 6.88}, {"measurement": "Emax", "setting": "human F508del-CFTR; [5]", "value": 448, "unit": "%"}]}
{"compound": "COc1cc(CCNC(=O)[C@@H]2CC(=O)N(C)[C@@H](CC(C)C)C(=O)N(C)[C@H](Cc3nc(C(F)(F)F)no3)C(=O)N[C@H](Cc3ccccc3)COc3cc(C)c4c(ccc[n+]4[O-])c3C(=O)N2)on1", "note": "[Example 982, (3S,7S,10R,13R)-13-benzyl-7-isobutyl-3-((2-(3-methoxyisoxazol-5-yl)ethyl)carbamoyl)-6,9,17-trimethyl-1,5,8,11-tetraoxo-10-((3-(trifluoromethyl)-1,2,4-oxadiazol-5-yl)methyl)-1,2,3,4,5,6,7,8,9,10,11,12,13,14-tetradecahydro-[1]oxa[4,7,10,14]tetraazacycloheptadecino[16,17-f]quinoline 18-oxide]", "values": [{"measurement": "pEC50", "setting": "human F508del-CFTR; [4]", "value": 6.63}, {"measurement": "Emax", "setting": "human F508del-CFTR; [5]", "value": 530, "unit": "%"}]}
{"compound": "COc1noc(CCNC(=O)[C@@H]2CC(=O)N(C)[C@@H](CC(C)C)C(=O)N(C)[C@H](Cc3nc(C(F)(F)F)no3)C(=O)N[C@H](Cc3ccccc3)COc3ccc4c(cc(F)c[n+]4[O-])c3C(=O)N2)n1", "note": "[Example 983, (3S,7S,10R,13R)-13-benzyl-20-fluoro-7-isobutyl-3-((2-(3-methoxy-1,2,4-oxadiazol-5-yl)ethyl)carbamoyl)-6,9-dimethyl-1,5,8,11-tetraoxo-10-((3-(trifluoromethyl)-1,2,4-oxadiazol-5-yl)methyl)-1,2,3,4,5,6,7,8,9,10,11,12,13,14-tetradecahydro-[1]oxa[4,7,10,14]tetraazacycloheptadecino[16,17-f]quinoline 18-oxide]", "values": [{"measurement": "pEC50", "setting": "human F508del-CFTR; [4]", "value": 6.57}, {"measurement": "Emax", "setting": "human F508del-CFTR; [5]", "value": 506, "unit": "%"}]}
{"compound": "(7R,13S,17S)-7-Benzyl-11-(3,3-dimethylbutyl)-13-isobutyl-14-methyl-9,12,15,19-tetraoxo-6,7,8,9,10,11,12,13,14,15,16,17,18,19-tetradecahydro-[1,3]dioxolo[4′,5′:4,5]benzo[1,2-p][1]oxa[4,7,10,14]tetraazacycloheptadecine-17-carboxylic acid", "values": [{"measurement": "ring closure, yield after HPLC", "setting": "[3]; FDPP, DMF/DCM, resin, 67.5 mM, with chain assembly", "value": 26, "unit": "%"}]}
